# Assays:
# [1] = system: pBMO promoter activity; format: cell-based, E. coli; settings: for activation of pBMO-promoter expression by BmoR in response to alcohol: E. coli, pBMO::GFP reporter
# Protocol: A pBMO-promoter::GFP reporter cassette is constructed. The pBMO-promoter comprises the nucleotide sequences from the −425 nucleotide to the +11 nucleotide. This section of the pBMO-promoter comprises the upstream activating sequence (UAS) to which BmoR binds. A deletion analysis is performed whereby the upstream sequence is deleted to produce reporter cassettes comprising of the −325 nucleotide to the +1 nucleotide fragment, the −225 nucleotide to the +1 nucleotide fragment, the −175 nucleotide to the +1 nucleotide fragment, the +1 nucleotide to the +1 nucleotide fragment, and no fragment (FIG. 3). The various reporter cassettes are introduced into an E. coli. also containing the bmoR gene operatively linked to the pBAD promoter or a pZT promoter. The pBAD promoter is taught by Guzman, L. M., et al., “Tight regulation, modulation, and high-level expression by vectors containing the arabinose PBAD promoter”, J. Bacteriol. 177(14):4121-4130 (1995), which is incorporated by reference.
# Using the pBMO-promoter reporter cassette comprising of the −325 nucleotide to the +1 nucleotide fragment, the E. coli strain is analyzed for the optimum temperature for pBMO promoter activity using different concentrations of butan-1-ol.
# Using the pBMO-promoter reporter cassette comprising of the −325 nucleotide to the +1 nucleotide fragment, the E. coli strain is analyzed for pBMO promoter activity in response to different alcohols: butan-1-ol (FIG. 5), ethanol (FIG. 6), 1-propanol (FIG. 6), 2-propanol (FIG. 6), pentanol (FIG. 5), and hexanol (FIG. 5). From an overnight culture harboring a plasmid containing GFP under control of pBMO and BmoR under control of pZT 5 mL cultures of rich media were inoculated (1.5% v/v). Cultures are grown at 37° C., 200 rpm, until reaching an optical density (OD600) of 0.25 and induced with 57.5 ng/mL anhydrotetracyline. The cultures are than grown at 25° C., 200 rpm, until reaching an OD600=0.80 at which point they are diluted to an OD600=0.20 in media containing a range of alcohol concentrations. The culture tubes are sealed with parafilm and grown at 25° C., 200 rpm, for 18 hours. 150 μl culture samples are quantified for GFP fluorescence on a 96-well plate reader.
# [2] = system: E. coli cultures harboring the butanol biosensor controlling TetA expression; settings: media with multiple concentrations of butanol and tetracycline; N=4
# Protocol: The BmoR transcription factor is used to construct a genetic selection for the presence of butanol in the media.
# Maximal growth rates are calculated by fitting curves to the Gompertz equation. […] N=4, mean±standard deviation.
# [3] = system: 300-nucleotide DNA fragment upstream of the pBMO-promoter; experiment: Gel mobility shift assay; format: binding; settings: purified His-tagged BmoR, DIG Gel Shift Kit
# Text: A DIG Gel Shift Kit (Roche Applied Science, Indianapolis, Ind.) is used according to the manufacturer's instructions.
Molecule,activation of pBMO-promoter expression by BmoR in response to alcohol [1],other results
CCCO [1-propanol],capable of activating pBMO-promoter expression,–
CCCCCCO [1-hexanol],capable of activating pBMO-promoter expression,–
CCO [ethanol],capable of activating pBMO-promoter expression,–
CCCCCO [1-pentanol],capable of activating pBMO-promoter expression,–
CC(C)O [2-propanol],capable of activating pBMO-promoter expression,–
CCC(C)O (stereo not drawn) [butan-1-ol],capable of activating pBMO-promoter expression,"butanol dependent growth (maximal growth rate) [2]: strong butanol dependent growth; activation of the reporter gene (optimum condition) ([1]; cultured at 25° C. with 0.5% of butan-1-ol by volume, compared to the other conditions tested): the activation of the reporter gene is the strongest"
"BmoR: σ54-dependent transcription factor (activator protein) of P. butanovora, SEQ ID NO: 4, activated by C2-C8 alcohols (protein, listed as Pseudomonas butanova) MSKMQEFARLETVASMRRAVWDGNECQPGKVADVVLRSWTRCRAEGVVPNARQEFDPIPRTALDETVEAKRALILAAEPVVDALMEQMNDAPRMIILNDERGVVLLNQGNDTLLEDARRRAVRVGVCWDEHARGTNAMGTALAERRPVAIHGAEHYLESNTIFTCTAAPIYDPFGEFTGILDISGYAGDMGPVPIPFVQMAVQFIENQLFRQTFADCILLHFHVRPDFVGTMREGIAVLSREGTIVSMNRAGLKIAGLNLEAVADHRFDSVFDLNFGAFLDHVRQSAFGLVRVSLYGGVQVYARVEPGLRVPPRPAAHARPPRPAPRPLDSLDTGDAAVRLAIDRARRAIGRNLSILIQGETGAGKEVFAKHLHAESPRSKGPFVAVNCAAIPEGLIESELFGYEEGAFTGGRRKGNIGKVAQAHGGTLFLDEIGDMAPGLQTRLLRVLQDRAVMPLGGREPMPVDIALVCATHRNLRSLIAQGQFREDLYYRLNGLAISLPPLRQRSDLAALVNHILFQCCGGEPHYSVSPEVMTLFKRHAWPGNLRQLHNVLDAALAMLDDGHVIEPHHLPEDFVMEVDSGLRPIEEDGSTAAHRARQPASGSGPAKKLQDLALDAIEQAIEQNEGNISVAARQLGVSRTTIYRKLRQLSPTGCHRPAHWSQSRIGT",–,binding of BmoR upstream of the pBMO-promoter (band shift) [3]: A band shift is observed

# From patent publication US8552169B2, “Transcription factor-based biosensor” (The Regents of the University of California, priority 2009, dated 2013)
